The values that follow are results of earlier work, collected in Sander's compilation of Henry's law constants (doi:10.1016/s0045-6535(00)00505-1).

A short description of this series: Henry solubility constant Hcp at 298.15 K (mol/(m3 Pa)). As to conditions: reference: Staudinger and Roberts (2001); cited value.
Take `ClCC(Cl)(Cl)Cl` [1,1,1,2-tetrachloroethane]: the “Henry solubility constant Hcp” value is 0.024.

Regarding `CC(Cl)(Cl)Cl` [1,1,1-trichloroethane], the “Henry solubility constant Hcp” value is 0.00059.

Turning to `ClCC(Cl)Cl` [1,1,2-trichloroethane], the “Henry solubility constant Hcp” value is 0.011.

For the compound `C=C(Cl)Cl` [1,1-dichloroethene], the “Henry solubility constant Hcp” value is 0.00034.

Regarding `ClCC(Cl)CCl` [1,2,3-trichloropropane], the “Henry solubility constant Hcp” value is 0.036.

Consider `CC(Cl)CCl` (centres undefined) [1,2-dichloropropane], for which the “Henry solubility constant Hcp” value is 0.0034.

Consider `Cc1ccccc1C` [1,2-dimethylbenzene], for which the “Henry solubility constant Hcp” value was 0.002.

On to `Cc1cccc(C)c1` [1,3-dimethylbenzene], for which the “Henry solubility constant Hcp” value was 0.0014.

On to `Cc1ccc(C)cc1` [1,4-dimethylbenzene], for which the “Henry solubility constant Hcp” value was 0.0013.

On to `CCCCO[N+](=O)[O-]` [1-butyl nitrate], for which the “Henry solubility constant Hcp” value is 0.0088.

Consider `CC(=O)c1ccccc1` [1-phenylethanone], for which the “Henry solubility constant Hcp” value is 1.1.

`CC(=O)C(=O)O` [2-oxopropanoic acid]: the “Henry solubility constant Hcp” value is 3000.

As for `CCCC(C)O[N+](=O)[O-]` (centres undefined) [2-pentyl nitrate], the “Henry solubility constant Hcp” value is 0.0037.

On to `CC(C)c1ccccc1` [(2-propyl)-benzene], for which the “Henry solubility constant Hcp” value is 0.0012.

Consider `O=Cc1ccccc1` [benzaldehyde], for which the “Henry solubility constant Hcp” value was 0.38.

`c1ccccc1` [benzene]: the “Henry solubility constant Hcp” value is 0.0017.

Consider `ClC(Cl)Br` [bromodichloromethane], for which the “Henry solubility constant Hcp” value was 0.004.

On to `CBr` [bromomethane], for which the “Henry solubility constant Hcp” value was 0.0017.

For the compound `Clc1ccccc1` [chlorobenzene], the “Henry solubility constant Hcp” value is 0.0027.

For the compound `CCCl` [chloroethane], the “Henry solubility constant Hcp” value is 0.00084.

On to `C=CCl` [chloroethene], for which the “Henry solubility constant Hcp” value is 0.00039.

For `ClC(Br)Br` [dibromochloromethane], the “Henry solubility constant Hcp” value is 0.0086.

Turning to `FC(F)(Cl)Cl` [dichlorodifluoromethane], the “Henry solubility constant Hcp” value was 3.1e-05.

Regarding `ClCCl` [dichloromethane], the “Henry solubility constant Hcp” value is 0.0036.

As for `CSC` [dimethyl sulfide], the “Henry solubility constant Hcp” value was 0.0053.

For `CC#N` [ethanenitrile], the “Henry solubility constant Hcp” value was 0.51.

Take `CC(=O)OO` [ethanoic peroxyacid]: the “Henry solubility constant Hcp” value is 7.3.

As to `CCc1ccccc1` [ethylbenzene], the “Henry solubility constant Hcp” value is 0.0013.

For `OCOO` [hydroxymethyl hydroperoxide], the “Henry solubility constant Hcp” value was 16000.

In the case of `CI` [iodomethane], the “Henry solubility constant Hcp” value is 0.002.

Take `CS` [methanethiol]: the “Henry solubility constant Hcp” value is 0.0028.

On to `COO` [methyl hydroperoxide], for which the “Henry solubility constant Hcp” value is 3.1.

Take `Cc1ccccc1` [methylbenzene]: the “Henry solubility constant Hcp” value is 0.0015.

Turning to `CCCCC(=O)O` [pentanoic acid], the “Henry solubility constant Hcp” value was 23.

Consider `CC(C)=O` [propanone], for which the “Henry solubility constant Hcp” value was 0.28.

Consider `ClC(Cl)=C(Cl)Cl` [tetrachloroethene], for which the “Henry solubility constant Hcp” value is 0.00059.

As for `ClC(Cl)(Cl)Cl` [tetrachloromethane], the “Henry solubility constant Hcp” value was 0.00034.

As to `BrC(Br)Br` [tribromomethane], the “Henry solubility constant Hcp” value was 0.017.

With `ClC=C(Cl)Cl` [trichloroethene], the “Henry solubility constant Hcp” value is 0.001.
